The target in assay [1] is human dipeptidylpeptidase 9 (hDPP9) (Homo sapiens (Human), UniProt Q86TI2). Put plainly: hDPP9 inhibition assay. The settings on record: highest compound concentration 10 μM; n = 1. It counts as biochemical. On the procedure: Compounds were tested in a biochemical inhibition assay using human dipeptidylpeptidase 9 (hDPP9) enzyme (R&D, #5419-SE-010) and the substrate Gly-Pro-amino-methylcoumarin (Enzo #BML-P189-0005) at 10 μM FAC. The enzymatic reactions were conducted in duplicate at rt for 30 min in 50 μL assay buffer (50 mM Tris, pH 7.5, 0.1% BSA). Compound solutions (in DMSO) at 10 CR, 3-fold dilution series were prepared in assay buffer ten-fold higher than the final concentration, and 5 μL of the dilution was added to a 50 μL reaction so that the highest compound concentration was 10 μM FAC and the concentration of DMSO was 1% in all wells. The plates were read on a PHERAstarPLUS (BMG) using kinetic mode with excitation 340 nm and emission 460 nm. Data were analyzed in Graph Pad Prism. […] Raw data signals were normalized using 1% DMSO as 0% control and no enzyme as 100% inhibitor control.

In assay [2] the target is human dipeptidylpeptidase 7 (hDPP7) (Homo sapiens (Human), UniProt Q9UHL4). The experiment in a line: hDPP7 inhibition assay. The settings on record: highest compound concentration 10 μM; n = 1. Format: biochemical. On the procedure: Compounds were tested in a biochemical inhibition assay using human dipeptidylpeptidase 7 (hDPP7) enzyme (BPS Bioscience, #80070) and the substrate Ala-Pro-amino-methylcoumarin (BPS Bioscience, #80305) at 10 μM FAC. The enzymatic reactions were conducted in duplicate at rt for 20 min in 50 μL assay buffer (10 mM Tris-HCl, pH 7.4, 10 mM MgCl2, 1 mM MnCl2). Compound solutions (in DMSO) at 10 CR, 3-fold dilution series were prepared in assay buffer ten-fold higher than the final concentration, and 5 μL of the dilution was added to a 50 μL reaction so that the highest compound concentration was 10 μM FAC and the concentration of DMSO was 1% in all wells. The plates were read on a PHERAstarPLUS (BMG) using kinetic mode with excitation 340 nm and emission 460 nm. Data were analyzed in Graph Pad Prism. Raw data signals were normalized using 1% DMSO as 0% control and no enzyme as 100% inhibitor control.

Molecules are shown by their SMILES.

Sequence of human dipeptidylpeptidase 9 (hDPP9) (Q86TI2 whole entry): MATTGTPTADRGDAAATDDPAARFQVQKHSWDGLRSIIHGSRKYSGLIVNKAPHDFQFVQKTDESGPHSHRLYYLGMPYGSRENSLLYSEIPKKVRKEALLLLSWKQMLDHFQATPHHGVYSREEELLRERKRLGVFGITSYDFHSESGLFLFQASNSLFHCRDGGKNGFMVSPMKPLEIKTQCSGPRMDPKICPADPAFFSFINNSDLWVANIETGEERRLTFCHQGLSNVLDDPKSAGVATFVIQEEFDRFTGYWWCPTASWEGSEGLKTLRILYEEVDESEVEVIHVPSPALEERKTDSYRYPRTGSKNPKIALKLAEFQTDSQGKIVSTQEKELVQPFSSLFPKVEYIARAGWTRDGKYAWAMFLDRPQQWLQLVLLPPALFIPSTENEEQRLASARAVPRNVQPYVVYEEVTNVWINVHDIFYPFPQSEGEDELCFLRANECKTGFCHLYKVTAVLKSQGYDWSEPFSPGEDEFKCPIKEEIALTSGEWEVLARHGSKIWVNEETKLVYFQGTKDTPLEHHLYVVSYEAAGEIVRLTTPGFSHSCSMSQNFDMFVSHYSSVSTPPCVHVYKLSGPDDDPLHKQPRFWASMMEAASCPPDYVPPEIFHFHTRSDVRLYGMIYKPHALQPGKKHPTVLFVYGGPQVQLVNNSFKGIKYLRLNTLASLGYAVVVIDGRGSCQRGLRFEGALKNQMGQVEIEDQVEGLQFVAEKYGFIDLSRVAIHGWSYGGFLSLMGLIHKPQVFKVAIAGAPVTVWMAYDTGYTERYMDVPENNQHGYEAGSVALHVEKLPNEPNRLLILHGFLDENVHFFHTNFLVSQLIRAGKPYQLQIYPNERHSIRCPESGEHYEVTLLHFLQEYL

The IC50 is the concentration that gives 50% inhibition. Higher therefore signals weaker potency. Turning to `Cc1ccc2c(C(=O)NCC(=O)N3[C@H](C#N)C[C@@H]4C[C@@H]43)ccnc2c1` [Example 20, N-(2-((1S,3S,5S)-3-Cyano-2-azabicyclo[3.1.0]hexan-2-yl)-2-oxoethyl)-7-methylquinoline-4-carboxamide], the IC50 in assay [1] and in assay [2] was over 10 nM throughout.

Source of the values: patent US20230406840A1, “N-(2-(3-CYANO-2-AZABICYCLO[3.1.0]HEXAN-2-YL)-2-OXOETHYL)QUINOLINE-4-CARBOXAMIDES” (AstraZeneca AB, priority 2022, published 2023).
